Test results reported in patent US20240254103A9, “NOVEL PYRIMIDINE DERIVATIVE, AND COMPOSITION FOR PREVENTING OR TREATING NEURODEGENERATIVE DISEASES AND CANCER, COMPRISING SAME” (WHAN IN PHARMACEUTICAL CO., LTD., priority 2020, published 2024).

Columns and labels:
mutant LRRK2 (G2019S) = target: T1, mutant LRRK2 (G2019S) (Homo sapiens, UniProt Q5S007, G2019S); test: Inhibitory activity against LRRK2: competition binding to ligand-affinity beads, DNA-tagged kinase quantitated by qPCR; conditions: 100 nM compound; % of ctrl; read-out: Remaining kinase activity(%) at 100 nM LRRK2(G2019Smutant)
T1 construct: DNA tag for qPCR detection (not a peptide; the protein part that carries it is not described); made in house; host or cells: HEK 293 cells (the same paragraph also describes T7 phage grown in E. coli BL21)
In short: (§1)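 Human LRRK2 H970–E2527, wild type or G2019S, was expressed as DNA-tagged kinase (T7 phage in E. coli or HEK293) and competed for 1 h against a biotinylated ligand on streptavidin beads. Bound kinase was eluted with 0.5 µM free ligand and quantified by qPCR. Values are % of control at 100 nM (both forms) and at 10 and 50 nM (wild type).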

wild-type LRRK2 = target: T2, wild-type LRRK2 (Homo sapiens, UniProt Q5S007); test: as above; conditions: % of ctrl; for remaining binding at 0.1 µM: 100 nM compound, read-out: Remaining kinase activity(%) at 100 nM LRRK2(WT)
T2 construct: DNA tag for qPCR detection (not a peptide; the protein part that carries it is not described); made in house; host or cells: HEK 293 cells (the same paragraph also describes T7 phage grown in E. coli BL21)
In short: as §1

[1] = Blood-brain barrier (BBB) penetration, LC-MS/MS of plasma and brain tissue after oral administration; type: in vivo; conditions: oral 10 mg/kg, three hours after administration
Method: Test substances were each orally administered at a dose of 10 mg/kg. Three hours later, the animals were sacrificed and blood samples were immediately taken from the heart and centrifuged to obtain plasma samples. In order to remove the blood remaining in the body, 20 ml of saline containing 10 U/ml heparin were perfused through the heart, after which the brain was excised. The brain was homogenized together with three volumes of a PBS buffer. For quantitative analysis in the prepared plasma and brain tissue, advantage was taken of LC-MS/MS (Agilent, Santa Clara, Calif., USA). Separation in LC was conducted with a mobile phase consisting of 80% of acetonitrile and 20% of water containing 0.1% formic acid. For each substance, the eluting buffer was run for a total of 3 minutes at a flow rate of 0.3 ml/min. Each substance was quantitated using a multiple reaction monitoring method (for comparative compounds 4 and 5, the oral Parkinson's disease drugs DNL-151 and DNL-201 were used as LRRK2 protein inhibitors, respectively).

T1 sequence (Q5S007 970-2527 G2019S): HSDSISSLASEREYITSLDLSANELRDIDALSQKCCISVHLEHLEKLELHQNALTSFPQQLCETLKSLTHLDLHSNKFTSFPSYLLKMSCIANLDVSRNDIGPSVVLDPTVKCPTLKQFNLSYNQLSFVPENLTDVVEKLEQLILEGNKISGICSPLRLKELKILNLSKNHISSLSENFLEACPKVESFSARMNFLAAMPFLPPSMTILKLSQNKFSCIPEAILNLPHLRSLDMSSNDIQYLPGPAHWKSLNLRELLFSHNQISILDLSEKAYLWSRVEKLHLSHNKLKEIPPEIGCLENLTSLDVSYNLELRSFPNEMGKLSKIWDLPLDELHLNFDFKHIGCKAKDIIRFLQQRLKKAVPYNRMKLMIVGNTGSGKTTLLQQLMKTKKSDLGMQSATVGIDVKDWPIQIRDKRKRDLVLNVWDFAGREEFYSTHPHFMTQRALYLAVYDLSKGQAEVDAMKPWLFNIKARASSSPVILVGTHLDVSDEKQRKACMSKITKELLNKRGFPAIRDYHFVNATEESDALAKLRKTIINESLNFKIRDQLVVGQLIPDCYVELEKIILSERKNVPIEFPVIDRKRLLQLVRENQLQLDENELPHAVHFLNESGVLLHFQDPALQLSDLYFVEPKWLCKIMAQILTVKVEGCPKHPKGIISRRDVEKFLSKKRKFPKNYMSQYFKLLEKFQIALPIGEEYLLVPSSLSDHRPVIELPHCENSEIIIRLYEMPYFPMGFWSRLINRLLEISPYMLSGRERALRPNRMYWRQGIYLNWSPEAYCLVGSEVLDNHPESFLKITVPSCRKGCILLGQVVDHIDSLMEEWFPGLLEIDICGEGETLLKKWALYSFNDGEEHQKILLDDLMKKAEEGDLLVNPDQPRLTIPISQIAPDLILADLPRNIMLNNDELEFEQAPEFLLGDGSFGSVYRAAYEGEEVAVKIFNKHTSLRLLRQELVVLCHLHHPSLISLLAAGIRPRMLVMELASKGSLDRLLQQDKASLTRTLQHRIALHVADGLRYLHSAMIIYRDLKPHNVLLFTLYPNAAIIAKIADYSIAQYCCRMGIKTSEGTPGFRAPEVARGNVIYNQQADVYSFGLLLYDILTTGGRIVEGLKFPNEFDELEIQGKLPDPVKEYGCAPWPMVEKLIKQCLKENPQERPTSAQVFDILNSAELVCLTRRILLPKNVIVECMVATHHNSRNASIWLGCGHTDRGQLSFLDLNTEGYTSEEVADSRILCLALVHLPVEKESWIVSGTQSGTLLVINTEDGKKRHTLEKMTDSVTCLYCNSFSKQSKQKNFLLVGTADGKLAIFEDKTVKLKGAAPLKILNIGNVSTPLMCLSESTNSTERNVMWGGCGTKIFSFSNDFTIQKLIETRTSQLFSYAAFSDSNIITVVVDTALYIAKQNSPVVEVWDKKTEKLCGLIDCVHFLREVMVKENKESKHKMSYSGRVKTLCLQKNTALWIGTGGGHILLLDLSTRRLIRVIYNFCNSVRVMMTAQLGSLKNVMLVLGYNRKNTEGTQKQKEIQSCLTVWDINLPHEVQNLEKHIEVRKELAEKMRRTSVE
T2 sequence (Q5S007 970-2527): as the sequence (Q5S007 970-2527 G2019S) above, with S1050G counted along it

| SMILES | remaining binding at 0.1 µM (mutant LRRK2 (G2019S)) | remaining binding at 0.1 µM (wild-type LRRK2) | remaining binding at 0.01 µM (wild-type LRRK2; 10 nM compound, read-out: LRRK2(WT) Remaining kinase activity(%) at 10 nM) | remaining binding at 0.05 µM (wild-type LRRK2; 50 nM compound, read-out: LRRK2(WT) Remaining kinase activity(%) at 50 nM) | effective concentration in the brain tissue, fold higher compared to comparative compound-4 (DNL-151) [1] | effective concentration in the brain tissue, fold higher compared to comparative compound-5 (DNL-201) [1] |
| --- | --- | --- | --- | --- | --- | --- |
| COc1cc(C(=O)N2CC3(CCO3)C2)ccc1Nc1ncc(Cl)c(-c2cnn(C)c2)n1 [Compound 33, (4-((5-chloro-4-(1-methyl-1H-pyrazol-4-yl)pyrimidin-2-yl)amino)-3-methoxyphenyl)(1-oxa-6-azaspiro[3.3]heptan-6-yl)methanone] | < 50% | < 30% | – | – | – | – |
| COc1cc(C(=O)N2CCN(C(C)C)CC2)ccc1Nc1ncc(Cl)c(-c2cnn(C)c2)n1 [Compound 34, (4-((5-chloro-4-(1-methyl-1H-pyrazol-4-yl)pyrimidin-2-yl)amino)-3-methoxyphenyl)(4-isopropylpiperazin-1-yl)methanone] | < 30% | < 10% | – | – | – | – |
| COc1cc(C(=O)N2CCC3(CC2)COC3)ccc1Nc1ncc(Cl)c(-c2cnn(C3CCOCC3)c2)n1 [Compound 35, (4-((5-chloro-4-(1-(tetrahydro-2H-pyran-4-yl)-1H-pyrazol-4-yl)pyrimidin-2-yl)amino)-3-methoxyphenyl)(2-oxa-7-azaspiro[3.5]nonan-7-yl)methanone] | < 10% | < 30% | – | – | – | – |
| COc1cc(C(=O)N2CCOCC2)ccc1Nc1ncc(Cl)c(-c2cnn(C(C)C)c2)n1 [Compound 37, (4-((5-chloro-4-(1-isopropyl-1H-pyrazol-4-yl)pyrimidin-2-yl)amino)-3-methoxyphenyl)(morpholino)methanone] | < 10% | < 10% | < 50% | < 30% | 1.64 fold | 2.77 fold |
| COc1cc(C(=O)NC2CCN(C)CC2)ccc1Nc1ncc(Cl)c(-c2cnn(C)c2)n1 [Compound 38, 4-((5-chloro-4-(1-methyl-1H-pyrazol-4-yl)pyrimidin-2-yl)amino)-3-methoxy-N-(1-methylpiperidin-4-yl)benzamide] | < 10% | < 10% | – | – | – | – |
| COc1cc(C(=O)N2CCC(F)(F)CC2)ccc1Nc1ncc(Cl)c(-c2cnn(C)c2)n1 [Compound 41, (4-((5-chloro-4-(1-methyl-1H-pyrazol-4-yl)pyrimidin-2-yl)amino)-3-methoxyphenyl)(4,4-difluoropiperidin-1-yl)methanone] | < 50% | < 30% | – | – | – | – |
| COc1cc(C(=O)N2CCOC(C)(C)C2)ccc1Nc1ncc(Cl)c(-c2cnn(C)c2)n1 [Compound 42, (4-((5-chloro-4-(1-methyl-1H-pyrazol-4-yl)pyrimidin-2-yl)amino)-3-methoxyphenyl)(2,2-dimethylmorpholino)methanone] | < 50% | < 30% | – | – | – | – |
| COc1cc(C(=O)N2CC(N3CCOCC3)C2)ccc1Nc1ncc(Cl)c(-c2cnn(C)c2)n1 [Compound 43, (4-((5-chloro-4-(1-methyl-1H-pyrazol-4-yl)pyrimidin-2-yl)amino)-3-methoxyphenyl)(3-morpholinoazetidin-1-yl)methanone] | < 30% | < 10% | – | – | – | – |
| COc1cc(C(=O)N2CCN(C(C)=O)CC2)ccc1Nc1ncc(Cl)c(-c2cnn(C)c2)n1 [Compound 44, 1-(4-(4-((5-chloro-4-(1-methyl-1H-pyrazol-4-yl)pyrimidin-2-yl)amino)-3-methoxybenzoyl)piperazin-1-yl)ethan-1-one] | < 30% | < 10% | – | – | – | – |
| COc1cc(C(=O)N2CCN(C(C)C)CC2)ccc1Nc1ncc(C(F)(F)F)c(-c2cnn(C)c2)n1 [Compound 45, (4-isopropylpiperazin-1-yl)(3-methoxy-4-((4-(1-methyl-1H-pyrazol-4-yl)-5-(trifluoromethyl)pyrimidin-2-yl)amino)phenyl)methanone] | < 30% | < 30% | – | – | – | – |
| COc1cc(C(=O)N2CCOCC2)c(F)cc1Nc1ncc(C(F)(F)F)c(-c2cnn(C)c2)n1 [Compound 46, (2-fluoro-5-methoxy-4-((4-(1-methyl-1H-pyrazol-4-yl)-5-(trifluoromethyl)pyrimidin-2-yl)amino)phenyl)(morpholino)methanone] | < 10% | < 10% | – | – | – | – |
| COc1cc(C(=O)N2CCOCC2)c(F)cc1Nc1ncc(Cl)c(-c2cnn(C(C)C)c2)n1 [Compound 49, (4-((5-chloro-4-(1-isopropyl-1H-pyrazol-4-yl)pyrimidin-2-yl)amino)-2-fluoro-5-methoxyphenyl)(morpholino)methanone] | < 10% | < 10% | – | – | – | – |
| COc1cc(C(=O)N2CCN(C3COC3)CC2)ccc1Nc1ncc(Cl)c(-c2cnn(C)c2)n1 [Compound 50, (4-((5-chloro-4-(1-methyl-1H-pyrazol-4-yl)pyrimidin-2-yl)amino)-3-methoxyphenyl)(4-(oxetan-3-yl)piperazin-1-yl)methanone] | < 10% | < 10% | – | – | – | – |
| COc1cc(C(=O)N2C[C@H]3CC[C@@H](C2)O3)ccc1Nc1ncc(Cl)c(-c2cnn(C)c2)n1 [Compound 51, ((1R,5S)-8-oxa-3-azabicyclo[3.2.1]octan-3-yl)(4-((5-chloro-4-(1-methyl-1H-pyrazol-4-yl)pyrimidin-2-yl)amino)-3-methoxyphenyl)methanone] | < 30% | < 30% | – | – | – | – |
| COc1cc(C(=O)c2ccncc2)ccc1Nc1ncc(Cl)c(-c2cnn(C(C)C)c2)n1 [Compound 54, (4-((5-chloro-4-(1-isopropyl-1H-pyrazol-4-yl)pyrimidin-2-yl)amino)-3-methoxyphenyl)(pyridin-4-yl)methanone] | < 30% | < 50% | – | – | – | – |
| CCn1cc(-c2nc(Nc3ccc(C(=O)N4CCOCC4)cc3OC)ncc2Cl)cn1 [Compound 56, (4-((5-chloro-4-(1-ethyl-1H-pyrazol-4-yl)pyrimidin-2-yl)amino)-3-methoxyphenyl)(morpholino)methanone] | < 10% | < 10% | – | – | – | – |
| CCCn1cc(-c2nc(Nc3ccc(C(=O)N4CCOCC4)cc3OC)ncc2Cl)cn1 [Compound 57, (4-((5-chloro-4-(1-propyl-1H-pyrazol-4-yl)pyrimidin-2-yl)amino)-3-methoxyphenyl)(morpholino)methanone] | < 10% | < 10% | – | – | – | – |
| COc1cc(C(=O)N2CCOCC2)ccc1Nc1ncc(Cl)c(-c2cnn(C3CC3)c2)n1 [Compound 58, (4-((5-chloro-4-(1-cyclopropyl-1H-pyrazol-4-yl)pyrimidin-2-yl)amino)-3-methoxyphenyl)(morpholino)methanone] | < 10% | < 30% | – | – | – | – |
| COc1cc(C(=O)N2CCOCC2)ccc1Nc1ncc(Cl)c(-c2cnn(C(C)(C)C)c2)n1 [Compound 59, (4-((4-(1-(tert-butyl)-1H-pyrazol-4-yl)-5-chloropyrimidin-2-yl)amino)-3-methoxyphenyl)(morpholino)methanone] | < 10% | < 10% | – | – | – | – |
